This note sets out measurements from patent US20180168157A1, “ANTIMICROBIAL COMPOSITIONS COMPRISING FOOD APPROVED ANTIMICROBIALS AND ZINC PYRITHIONE” (Janssen Pharmaceutica NV, priority 2015, published 2018).

Common to all, as to type: cell-based
In test [1] the test system is Saccharomyces cerevisiae CBS 8803. Description: Poison plate assay (MIC and synergy index), Saccharomyces cerevisiae. The note with it: ppm total active ingredient, half strength potato dextrose broth, 28° C., evaluation 7 days after inoculation. The source says:
wherein: • QA is the concentration of compound A in ppm, acting alone, which produced an end point (e.g. MIC), • Qa is the concentration of compound A in ppm, in the mixture, which produced an end point (e.g. MIC), • QB is the concentration of compound B in ppm, acting alone, which produced an end point (e.g. MIC), • Qb is the concentration of compound B in ppm, in the mixture, which produced an end point (e.g. MIC).
When the Synergy Index is greater than 1.0, antagonism is indicated. When the SI is equal to 1.0, additivity is indicated.

Test [2] concerns Escherichia coli LMG 8063. As to the kind of experiment: Poison plate assay (MIC and synergy index), Escherichia coli. The note with it: ppm total active ingredient, nutrient broth pH 6.8, 28° C., evaluation 7 days after inoculation. The source says: (§1) Experiment 1: Poison Plate Assay
(§2) In the test combinations above, product A is component (I), i.e. zinc pyrithione, and product B is a component (II), i.e. either sodium sulfite (II-a) or lysozyme (II-b).
(§3) Concentration series of total actives: a series of 24 concentrations increasing with steps of ⅓:0.27-0.35-0.47-0.63-0.84-1.13-1.50-2.00-2.67-3.56-4.75-6.33-8.44-11.25-15.00-20.00-26.70-35.60-47.46-63.28-84.38-112.50-150.00-200.00 ppm. • Culture medium: bacteria: nutrient broth (3 g beef extract and 5 g peptone in 1 liter deionised water, pH=6.8.) • Experimental set up: 96-well plates containing 300 μl pf inoculum plus 0.75 μl of a 400× concentrated stock solution of the test compounds per well. • Species of test organisms: Escherichia coli LMG 8063 • Staphylococcus aureus LMG 8195/ATCC 6538P • Inoculum: the nutrient medium is inoculated with an actively growing liquid culture of the test bacteria. • Culture conditions: 28° C., 70% relative humidity, incubation in darkness. • Evaluation: 7 days after inoculation. […]

For test [3], the system named is Staphylococcus aureus LMG 8195/ATCC 6538P. Description: Poison plate assay (MIC and synergy index), Staphylococcus aureus. The note with it: ppm total active ingredient, nutrient broth pH 6.8, 28° C., evaluation 7 days after inoculation.
Source text: as §1, §2, §3

Consider `O=S([O-])O.[Na+]` [sodium bisulfite], for which the “MIC-values in ppm (minimum inhibitory concentration)” value in test [1] is reported as 267 ppm.
Consider `O=S([O-])[O-].[Na+].[Na+]` [sodium sulfite], for which, in test [2], the “MIC-values in ppm (minimum inhibitory concentration)” value is 267 ppm.
Regarding `[O-][n+]1ccccc1[S][Zn][S]c1cccc[n+]1[O-]` [zinc pyrithione, bis(2-pyridylthio)zinc 1,1′dioxide], the “MIC-values in ppm (minimum inhibitory concentration)” value was 2.00 ppm in test [3], 3.60 ppm in test [2] and 2.00 ppm in test [1].
As for lysozyme, in test [3], the “MIC-values in ppm (minimum inhibitory concentration)” value is on record as 267 ppm.
